Measured values reported in PubChem BioAssay (NCI).
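Briefly, cells in 96-well plates were exposed to five compound concentrations for 48 h, and endpoints were estimated by linear interpolation. Here, GI50 denotes the concentration required for 50% inhibition of growth. TGI is the concentration that stops growth completely.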

Legend:
Test in all cases: NCI tumour cell line growth inhibition, 48 h
[1] = system: 786-0 renal
[2] = system: A498 renal
[3] = system: A549 NSCLC
[4] = system: ACHN renal
[5] = system: BT-549 breast
[6] = system: CAKI-1 renal
[7] = system: COLO 205 colon
[8] = system: DU-145 prostate
[9] = system: EKVX NSCLC
[10] = system: HCC-2998 colon
[11] = system: HCT-116 colon
[12] = system: HCT-15 colon
[13] = system: HOP-62 NSCLC
[14] = system: HS 578T breast
[15] = system: HT29 colon
[16] = system: IGROV1 ovarian
[17] = system: K-562 leukemia
[18] = system: KM12 colon
[19] = system: LOX IMVI melanoma
[20] = system: M14 melanoma
[21] = system: MALME-3M melanoma
[22] = system: MCF7 breast
[23] = system: MDA-MB-231 breast
[24] = system: MDA-MB-435
[25] = system: NCI-H226 lung
[26] = system: NCI-H23 lung
[27] = system: NCI-H460 lung
[28] = system: NCI-H522 lung
[29] = system: NCI/ADR-RES ovarian
[30] = system: OVCAR-3 ovarian
[31] = system: OVCAR-4 ovarian
[32] = system: OVCAR-5 ovarian
[33] = system: OVCAR-8 ovarian
[34] = system: PC-3 prostate
[35] = system: RXF 393 renal
[36] = system: SF-268 CNS
[37] = system: SF-295 CNS
[38] = system: SF-539 CNS
[39] = system: SK-MEL-2 melanoma
[40] = system: SK-MEL-28 melanoma
[41] = system: SK-MEL-5 melanoma
[42] = system: SK-OV-3 ovarian
[43] = system: SN12C renal
[44] = system: SNB-19 CNS
[45] = system: SNB-75 CNS
[46] = system: SW-620 colon
[47] = system: T-47D breast
[48] = system: TK-10 renal
[49] = system: U251 CNS
[50] = system: UACC-257 melanoma
[51] = system: UACC-62 melanoma
[52] = system: UO-31 renal

Q: With `O=C(O)CNC(=O)C(CS)Cc1ccccc1` (centres undefined) as the compound, how does the GI50 [1] read?
A: Its GI50 is > 25 µM.

Q: What about the TGI [1] of the same compound?
A: The TGI was > 25 µM.

Q: And the GI50 [2]?
A: Its GI50 is > 25 µM.

Q: What about the TGI [2] of the same compound?
A: Its TGI is > 25 µM.

Q: What about the GI50 [3] of the same compound?
A: The GI50 was > 25 µM.

Q: And the TGI [3]?
A: Its TGI is > 25 µM.

Q: What about the GI50 [4] of the same compound?
A: The GI50 was > 25 µM.

Q: And the TGI [4]?
A: The TGI was > 25 µM.

Q: What about the GI50 [5] of the same compound?
A: Its GI50 is > 25 µM.

Q: And the TGI [5]?
A: Its TGI is > 25 µM.

Q: And the GI50 [6]?
A: The GI50 was > 25 µM.

Q: What about the TGI [6] of the same compound?
A: The TGI was > 25 µM.

Q: And the GI50 [7]?
A: Its GI50 is > 25 µM.

Q: What about the TGI [7] of the same compound?
A: Its TGI is > 25 µM.

Q: What about the GI50 [8] of the same compound?
A: Its GI50 is > 25 µM.

Q: And the TGI [8]?
A: Its TGI is > 25 µM.

Q: And the GI50 [9]?
A: Its GI50 is > 25 µM.

Q: What about the TGI [9] of the same compound?
A: Its TGI is > 25 µM.

Q: And the GI50 [10]?
A: The GI50 was > 25 µM.

Q: And the TGI [10]?
A: Its TGI is > 25 µM.

Q: What about the GI50 [11] of the same compound?
A: The GI50 was > 25 µM.

Q: And the TGI [11]?
A: Its TGI is > 25 µM.

Q: What about the GI50 [12] of the same compound?
A: The GI50 was > 25 µM.

Q: What about the TGI [12] of the same compound?
A: The TGI was > 25 µM.

Q: What about the GI50 [13] of the same compound?
A: Its GI50 is > 25 µM.

Q: And the TGI [13]?
A: The TGI was > 25 µM.

Q: And the GI50 [14]?
A: Its GI50 is > 25 µM.

Q: What about the TGI [14] of the same compound?
A: The TGI was > 25 µM.

Q: What about the GI50 [15] of the same compound?
A: Its GI50 is > 25 µM.

Q: What about the TGI [15] of the same compound?
A: Its TGI is > 25 µM.

Q: And the GI50 [16]?
A: The GI50 was > 25 µM.

Q: And the TGI [16]?
A: Its TGI is > 25 µM.

Q: And the GI50 [17]?
A: Its GI50 is > 25 µM.

Q: What about the TGI [17] of the same compound?
A: Its TGI is > 25 µM.

Q: What about the GI50 [18] of the same compound?
A: The GI50 was > 25 µM.

Q: What about the TGI [18] of the same compound?
A: Its TGI is > 25 µM.

Q: What about the GI50 [19] of the same compound?
A: The GI50 was > 25 µM.

Q: What about the TGI [19] of the same compound?
A: Its TGI is > 25 µM.

Q: What about the GI50 [20] of the same compound?
A: Its GI50 is > 25 µM.

Q: What about the TGI [20] of the same compound?
A: Its TGI is > 25 µM.

Q: What about the GI50 [21] of the same compound?
A: Its GI50 is > 25 µM.

Q: And the TGI [21]?
A: The TGI was > 25 µM.

Q: What about the GI50 [22] of the same compound?
A: Its GI50 is > 25 µM.

Q: And the TGI [22]?
A: The TGI was > 25 µM.

Q: And the GI50 [23]?
A: The GI50 was > 25 µM.

Q: And the TGI [23]?
A: The TGI was > 25 µM.

Q: What about the GI50 [24] of the same compound?
A: The GI50 was > 25 µM.

Q: And the TGI [24]?
A: The TGI was > 25 µM.

Q: What about the GI50 [25] of the same compound?
A: The GI50 was > 25 µM.

Q: And the TGI [25]?
A: Its TGI is > 25 µM.

Q: What about the GI50 [26] of the same compound?
A: Its GI50 is > 25 µM.

Q: And the TGI [26]?
A: Its TGI is > 25 µM.

Q: And the GI50 [27]?
A: The GI50 was > 25 µM.

Q: And the TGI [27]?
A: The TGI was > 25 µM.

Q: What about the GI50 [28] of the same compound?
A: Its GI50 is > 25 µM.

Q: What about the TGI [28] of the same compound?
A: Its TGI is > 25 µM.

Q: And the GI50 [29]?
A: The GI50 was > 25 µM.

Q: And the TGI [29]?
A: Its TGI is > 25 µM.

Q: And the GI50 [30]?
A: Its GI50 is > 25 µM.

Q: What about the TGI [30] of the same compound?
A: Its TGI is > 25 µM.

Q: And the GI50 [31]?
A: Its GI50 is > 25 µM.

Q: What about the TGI [31] of the same compound?
A: The TGI was > 25 µM.

Q: What about the GI50 [32] of the same compound?
A: Its GI50 is > 25 µM.

Q: What about the TGI [32] of the same compound?
A: Its TGI is > 25 µM.

Q: And the GI50 [33]?
A: The GI50 was > 25 µM.

Q: What about the TGI [33] of the same compound?
A: The TGI was > 25 µM.

Q: And the GI50 [34]?
A: The GI50 was > 25 µM.

Q: What about the TGI [34] of the same compound?
A: Its TGI is > 25 µM.

Q: And the GI50 [35]?
A: The GI50 was 0.79 µM.

Q: And the TGI [35]?
A: Its TGI is > 25 µM.

Q: What about the GI50 [36] of the same compound?
A: The GI50 was > 25 µM.

Q: What about the TGI [36] of the same compound?
A: The TGI was > 25 µM.

Q: What about the GI50 [37] of the same compound?
A: Its GI50 is > 25 µM.

Q: What about the TGI [37] of the same compound?
A: Its TGI is > 25 µM.

Q: And the GI50 [38]?
A: Its GI50 is > 25 µM.

Q: And the TGI [38]?
A: Its TGI is > 25 µM.

Q: And the GI50 [39]?
A: The GI50 was > 25 µM.

Q: And the TGI [39]?
A: Its TGI is > 25 µM.

Q: What about the GI50 [40] of the same compound?
A: Its GI50 is > 25 µM.

Q: And the TGI [40]?
A: The TGI was > 25 µM.

Q: What about the GI50 [41] of the same compound?
A: Its GI50 is > 25 µM.

Q: What about the TGI [41] of the same compound?
A: Its TGI is > 25 µM.

Q: What about the GI50 [42] of the same compound?
A: The GI50 was > 25 µM.

Q: And the TGI [42]?
A: The TGI was > 25 µM.

Q: What about the GI50 [43] of the same compound?
A: Its GI50 is > 25 µM.

Q: And the TGI [43]?
A: Its TGI is > 25 µM.

Q: What about the GI50 [44] of the same compound?
A: The GI50 was > 25 µM.

Q: And the TGI [44]?
A: Its TGI is > 25 µM.

Q: What about the GI50 [45] of the same compound?
A: The GI50 was > 25 µM.

Q: And the TGI [45]?
A: Its TGI is > 25 µM.

Q: And the GI50 [46]?
A: Its GI50 is > 25 µM.

Q: And the TGI [46]?
A: The TGI was > 25 µM.

Q: What about the GI50 [47] of the same compound?
A: Its GI50 is > 25 µM.

Q: And the TGI [47]?
A: The TGI was > 25 µM.

Q: And the GI50 [48]?
A: Its GI50 is > 25 µM.

Q: And the TGI [48]?
A: The TGI was > 25 µM.

Q: And the GI50 [49]?
A: Its GI50 is > 25 µM.

Q: What about the TGI [49] of the same compound?
A: Its TGI is > 25 µM.

Q: What about the GI50 [50] of the same compound?
A: Its GI50 is > 25 µM.

Q: What about the TGI [50] of the same compound?
A: Its TGI is > 25 µM.

Q: And the GI50 [51]?
A: The GI50 was > 25 µM.

Q: And the TGI [51]?
A: Its TGI is > 25 µM.

Q: What about the GI50 [52] of the same compound?
A: Its GI50 is > 25 µM.

Q: And the TGI [52]?
A: The TGI was > 25 µM.
